BigSolDB 2.1

O=C(CN1C(=O)S/C(=C\c2ccc(Cl)cc2)C1=O)N1CCN(CC(O)(Cn2cncn2)c2cc(F)ccc2F)CC1 (stereo not given)
solubility (mole fraction)
Details | 293.15 K | 298.15 K | 303.15 K | 308.15 K | 313.15 K
in ethanol | 0.000161 | 0.0002 | 0.000254 | 0.000312 | 0.000377
in n-hexane | 2.34e-06 | 3.14e-06 | 4.1e-06 | 5.16e-06 | 6.28e-06
in n-octanol | 0.00047 | 0.000578 | 0.000723 | 0.000882 | 0.00115
